Measurements taken from paper PMC12195740, “Discovery of Novel Imidazothiazole-Based Hydroxamic Acid Derivatives as Potent Indoleamine 2,3-Dioxygenase 1 and Histone Deacetylase 6 Dual Inhibitors” (Molecules, 2025).

Assays:
rhIDO1 = molecular target: T1, rhIDO1 (Homo sapiens, UniProt P14902); experiment: IDO1 inhibition assay; assay type: biochemical; details: means ± S.D. of three independent experiments
T1 construct: purchased
Experimental: Section S1. Biological assays […]
Section S 1.2 IDO1 inhibition assays
IDO1 inhibition assays were carried out according to the manufacturers’ procedures, as described previously. The standard assay mixture (100 μL) contained 50 mM of potassium phosphate buffer (pH = 6.5), 10 mM ascorbate, 10 μM methylene blue, 100 μg/mL catalase, 1 mM L-tryptophan and 10 μg/mL of rhIDO1. The plate was incubated at 37 °C in a dark environment, and reactions were terminated after 60 min by the addition of 50 μL of fluorogenic developer solution and further incubated at 45 °C in dark for 3 h. Then, the plate was allowed to cool to room temperature for at least 1 h. After centrifugation at 1500g for 5 min at 20 °C, the fluorescence […]
M1000 Pro, Tecan US, Morrisville, NC) in an end-point mode. […]

[1] = molecular target: T2, HDAC6 human recombinant enzyme (Homo sapiens, UniProt Q9UBN7); experiment: HDAC6 enzyme inhibitory activity assay; assay type: biochemical; details: read-out: HDAC6 Inhibition Rate at 1 μM
T2 sequence (Q9UBN7 1-1215): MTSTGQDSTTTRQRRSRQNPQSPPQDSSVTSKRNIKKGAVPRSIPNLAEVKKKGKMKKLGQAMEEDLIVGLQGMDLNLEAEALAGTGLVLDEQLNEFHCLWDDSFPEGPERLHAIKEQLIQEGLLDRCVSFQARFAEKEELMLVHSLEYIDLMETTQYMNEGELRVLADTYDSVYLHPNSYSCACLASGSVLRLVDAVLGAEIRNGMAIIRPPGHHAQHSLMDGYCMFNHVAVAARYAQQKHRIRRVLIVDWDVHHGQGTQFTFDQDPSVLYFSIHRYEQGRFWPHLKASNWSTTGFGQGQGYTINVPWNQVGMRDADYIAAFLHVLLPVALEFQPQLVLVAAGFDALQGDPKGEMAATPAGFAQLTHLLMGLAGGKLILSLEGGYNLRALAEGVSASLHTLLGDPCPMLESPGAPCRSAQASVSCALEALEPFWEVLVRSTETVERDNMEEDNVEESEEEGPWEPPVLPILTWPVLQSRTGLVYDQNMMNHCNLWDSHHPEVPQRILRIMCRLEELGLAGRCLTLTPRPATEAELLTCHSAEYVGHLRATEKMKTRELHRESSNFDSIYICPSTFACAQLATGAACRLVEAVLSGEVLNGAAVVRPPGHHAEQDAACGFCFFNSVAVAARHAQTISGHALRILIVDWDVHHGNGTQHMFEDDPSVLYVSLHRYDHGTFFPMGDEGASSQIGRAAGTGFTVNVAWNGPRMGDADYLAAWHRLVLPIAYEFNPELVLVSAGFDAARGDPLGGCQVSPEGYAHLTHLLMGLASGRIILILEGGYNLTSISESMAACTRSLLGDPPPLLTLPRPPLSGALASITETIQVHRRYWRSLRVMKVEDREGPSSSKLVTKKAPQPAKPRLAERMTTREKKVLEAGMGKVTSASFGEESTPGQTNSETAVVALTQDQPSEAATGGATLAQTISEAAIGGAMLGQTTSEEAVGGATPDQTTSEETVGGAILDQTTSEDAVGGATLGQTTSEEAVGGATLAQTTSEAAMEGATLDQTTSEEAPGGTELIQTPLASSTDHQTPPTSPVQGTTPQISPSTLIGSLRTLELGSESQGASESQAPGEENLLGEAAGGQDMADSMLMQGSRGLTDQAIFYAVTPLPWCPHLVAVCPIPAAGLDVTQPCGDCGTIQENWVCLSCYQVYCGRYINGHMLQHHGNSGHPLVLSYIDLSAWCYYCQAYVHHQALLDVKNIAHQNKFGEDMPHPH
Experimental: Section S1. Biological assays
Section S 1.1. HDAC6 enzyme inhibitory activity assay
Preparation of Master Mix. Trichostatin A in DMSO, Fluorogenic HDAC substrate 3, and HDAC6 human recombinant enzyme were diluted to 20 μM, 200 μM, and 7 ng/uL, respectively, using HDAC Assay Buffer.BSA was dissolved in 1 mL of distilled water to make a BSA solution at a concentration of 1 mg/mL. A certain amount of Fluorogenic HDAC substrate 3, BSA and HDAC Assay Buffer were mixed well to make a master mix, and 40 μL of the master mix was added to each well of a 96-well plate. In the drug administration group, 5 μL of Trichostatin A in DMSO and HDAC6 human recombinant enzyme were added to each well. 5 μL of HDAC Assay Buffer and HDAC6 human recombinant enzyme were added to each well of the blank group, and incubated for 30 min at 37 °C. Finally, 50 μL of undiluted HDAC substrate 3, BSA and HDAC Assay Buffer were added to each well. 50 μL of 2x HDAC Developer was added to each well and incubated at room temperature for 15 min. The samples were read in an enzyme marker with an excitation wavelength in the range of 350-380 nm and an emission light in the range of 440-460 nm.
The values of fluorescence intensities were read and the inhibition rate and IC50 were calculated. […]

MCF-7 cells = experiment: Cell viability (MTT) assay, MCF-7; details: Homo sapiens, MCF7, 48 h, read-out: Antiproliferative IC50, MCF-7
Experimental: Section S 1.3 Cell viability assays
(§1) Cell Bank at the Chinese Academy of Sciences.
(§2) DMEM and FBS were obtained from Gibco-Thermo (BRL Co. Ltd., USA).
(§3) another 48 h. The cells were stained with 10 μl of MTT at incubator for approximately 4 h. The medium was discarded and replaced by 100 mL DMSO. The O.D. value was read at 570/630 nm with a spectrophotometer.

HCT-116 cells = experiment: Cell viability (MTT) assay, HCT-116; details: Homo sapiens, HCT-116, 48 h, read-out: Antiproliferative IC50, HCT-116
Experimental: Section S 1.3 Cell viability assays
as §1, §2, §3

MDA-MB-231 cells = experiment: Cell viability (MTT) assay, MDA-MB-231; details: Homo sapiens, MDA-MB-231, 48 h, read-out: Antiproliferative IC50, MDA-MB-231
Experimental: Section S 1.3 Cell viability assays
as §1, §2, §3

SW480 cells = experiment: Cell viability (MTT) assay, SW480; details: Homo sapiens, SW480, 48 h, read-out: Antiproliferative IC50, SW480
Experimental: Section S 1.3 Cell viability assays
as §1, §2, §3

T1 sequence (P14902 whole entry): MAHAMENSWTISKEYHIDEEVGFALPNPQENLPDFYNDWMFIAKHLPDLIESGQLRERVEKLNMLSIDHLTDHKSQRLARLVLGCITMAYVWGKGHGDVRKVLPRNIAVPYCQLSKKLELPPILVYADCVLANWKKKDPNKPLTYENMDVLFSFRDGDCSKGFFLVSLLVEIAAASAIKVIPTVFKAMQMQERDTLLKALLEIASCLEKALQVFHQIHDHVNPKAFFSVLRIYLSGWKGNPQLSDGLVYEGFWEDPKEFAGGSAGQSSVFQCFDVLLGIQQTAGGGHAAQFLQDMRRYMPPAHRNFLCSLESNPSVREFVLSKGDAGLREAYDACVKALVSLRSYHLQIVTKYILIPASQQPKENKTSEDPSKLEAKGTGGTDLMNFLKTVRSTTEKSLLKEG

SMILES | IC50 (rhIDO1) [nM] | inhibition at 1 µM [1] [%] | IC50 (MCF-7 cells) [µM] | IC50 (HCT-116 cells) [µM] | IC50 (MDA-MB-231 cells) [µM] | IC50 (SW480 cells) [µM]
O=C(CCNc1ccc(NC(=O)c2cnc3scc(-c4ccc(Br)cc4)n23)cc1)NO [Compound 10a, 3-(4-Bromophenyl)-N-{4-[(3-(hydroxyamino)-3-oxopropyl)amino]phenyl}imidazo[2,1-b]thiazole-5-carboxamide] | 1870 ± 60 | 22.4 |  |  |  | 
O=C(CCCNc1ccc(NC(=O)c2cnc3scc(-c4ccc(Br)cc4)n23)cc1)NO [Compound 10b, 3-(4-Bromophenyl)-N-{4-[(4-(hydroxyamino)-4-oxobutyl)amino)phenyl}imidazo[2,1-b]thiazole-5-carboxamide] | 1060 ± 20 | 25.2 |  |  |  | 
O=C(CCCCNc1ccc(NC(=O)c2cnc3scc(-c4ccc(Br)cc4)n23)cc1)NO [Compound 10c, 3-(4-Bromophenyl)-N-{4-[(5-(hydroxyamino)-5-oxopentyl)amino)phenyl}imidazo[2,1-b]thiazole-5-carboxamide] | 340 ± 90 | 19.4 |  |  |  | 
Cc1ccc(-c2csc3ncc(C(=O)NCc4ccc(C(=O)NO)cc4)n23)cc1 [Compound 7b, N-[4-(hydroxycarbamoyl)benzyl]-3-(p-tolyl)imidazo[2,1-b]thiazole-5-carboxamide] | 960 ± 130 | 48 |  |  |  | 
Cc1ccc(-c2csc3ncc(C(=O)Nc4ccc(NCCCCCC(=O)NO)cc4)n23)cc1 [Compound 10j, N-{4-[(6-(hydroxyamino)-6-oxohexyl)amino]phenyl}-3-(p-tolyl)imidazo[2,1-b]thiazole-5-carboxamide] | 380 ± 50 | 40.2 | > 80 | > 80 | > 80 | > 80
NS(=O)(=O)NCCNc1nonc1C(=NO)Nc1ccc(F)c(Br)c1 [Epacadostat, reference compound] |  |  | > 80 | > 80 | > 80 | > 80
O=C(CCCCCNc1ccc(NC(=O)c2cnc3scc(-c4ccc(Br)cc4)n23)cc1)NO [Compound 10d] | 120 ± 10 | 46.2 | 52.9 ± 6.95 | 24.4 ± 4.78 | > 80 | > 80

Second part, the molecule after the results:

IC50 (rhIDO1) [nM] | inhibition at 1 µM [1] [%] | IC50 (MCF-7 cells) [µM] | IC50 (HCT-116 cells) [µM] | IC50 (MDA-MB-231 cells) [µM] | IC50 (SW480 cells) [µM] | SMILES
6160 ± 830 | 28.8 |  |  |  |  | Cc1ccc(-c2csc3ncc(C(=O)Nc4ccc(NCC(=O)NO)cc4)n23)cc1 [Compound 10f, N-{4-[(2-(hydroxyamino)-2-oxoethyl)amino]phenyl}-3-(p-tolyl)imidazo[2,1-b]thiazole-5-carboxamide]
1780 ± 470 | 33.7 |  |  |  |  | Cc1ccc(-c2csc3ncc(C(=O)Nc4ccc(NCCCC(=O)NO)cc4)n23)cc1 [Compound 10h, N-{4-[(4-(hydroxyamino)-4-oxobutyl)amino]phenyl}-3-(p-tolyl)imidazo[2,1-b]thiazole-5-carboxamide]
590 ± 110 | 35.5 |  |  |  |  | Cc1ccc(-c2csc3ncc(C(=O)Nc4ccc(NCCCCC(=O)NO)cc4)n23)cc1 [Compound 10i, N-{4-[(5-(hydroxyamino)-5-oxopentyl)amino]phenyl}-3-(p-tolyl)imidazo[2,1-b]thiazole-5-carboxamide]
2070 ± 290 | 31.2 |  |  |  |  | Cc1ccc(-c2csc3ncc(C(=O)Nc4ccc(NCCC(=O)NO)cc4)n23)cc1 [Compound 10g, N-{4-[(3-(hydroxyamino)-3-oxopropyl)amino]phenyl}-3-(p-tolyl)imidazo[2,1-b]thiazole-5-carboxamide]
